The target of data set [1] is T1, Flt3 (h) (Homo sapiens, UniProt P36888).
T1 sequence (P36888 27-993): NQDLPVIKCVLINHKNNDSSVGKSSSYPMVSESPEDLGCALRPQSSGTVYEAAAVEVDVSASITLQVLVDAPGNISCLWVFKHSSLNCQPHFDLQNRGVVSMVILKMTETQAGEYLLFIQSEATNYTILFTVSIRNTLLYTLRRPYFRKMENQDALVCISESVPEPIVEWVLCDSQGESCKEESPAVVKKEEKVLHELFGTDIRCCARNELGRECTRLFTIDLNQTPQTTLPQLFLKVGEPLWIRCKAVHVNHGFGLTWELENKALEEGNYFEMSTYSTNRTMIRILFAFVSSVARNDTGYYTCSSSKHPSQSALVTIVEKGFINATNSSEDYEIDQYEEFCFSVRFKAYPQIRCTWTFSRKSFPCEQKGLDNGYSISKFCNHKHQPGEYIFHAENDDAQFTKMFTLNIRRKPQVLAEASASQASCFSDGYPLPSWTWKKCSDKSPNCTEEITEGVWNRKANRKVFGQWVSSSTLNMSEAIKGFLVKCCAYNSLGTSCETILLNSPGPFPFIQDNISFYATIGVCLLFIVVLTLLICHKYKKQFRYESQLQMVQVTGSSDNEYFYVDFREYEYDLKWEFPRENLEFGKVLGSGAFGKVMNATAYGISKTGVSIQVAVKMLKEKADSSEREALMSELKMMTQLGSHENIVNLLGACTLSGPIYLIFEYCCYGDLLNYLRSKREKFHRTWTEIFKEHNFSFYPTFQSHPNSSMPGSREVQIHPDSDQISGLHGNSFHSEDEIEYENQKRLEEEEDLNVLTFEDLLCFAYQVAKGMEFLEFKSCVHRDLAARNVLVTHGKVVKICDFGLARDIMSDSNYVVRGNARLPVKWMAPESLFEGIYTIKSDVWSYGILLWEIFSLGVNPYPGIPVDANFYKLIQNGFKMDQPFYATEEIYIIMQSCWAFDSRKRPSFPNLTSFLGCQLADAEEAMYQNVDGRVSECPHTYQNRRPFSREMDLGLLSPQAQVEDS
The experiment in a line: FLT3 in vitro peptide-based kinase assay, Protocol 1. In kind it is biochemical. On the procedure: The inhibition of FLT3 kinase was assessed using FLT3 recombinant protein in an in vitro peptide-based kinase assay.
In a final reaction volume of 25 μL, Flt3 (h) (5-10 mU) is incubated with 8 mM MOPS pH 7.0, 0.2 mM EDTA, 50 μM EAIYAAPFAKKK, 10 mM MgAcetate and [g-33P-ATP] (specific activity approx. 500 cpm/pmol, concentration as required). The reaction is initiated by the addition of the MgATP mix. After incubation for 40 minutes at room temperature, the reaction is stopped by the addition of 5 μL of a 3% phosphoric acid solution. 10 μL of the reaction is then spotted onto a P30 filtermat and washed three times for 5 minutes in 75 mM phosphoric acid and once in methanol prior to drying and scintillation counting.

Data set [2] deals with T2, FLT3 wt (Homo sapiens, UniProt P36888).
T2 construct: purchased Invitrogen Corporation
T2 sequence (P36888 27-993): T1 sequence (P36888 27-993)
Put plainly: radiometric protein kinase assay (33PanQinase Activity Assay) FLT3 wt, Protocol 2. In kind it is biochemical. The conditions noted are these: ATP 3 μM. On the procedure:
A radiometric protein kinase assay (33PanQinase® Activity Assay) was used for measuring the kinase activity. All kinase assays were performed in 96-well FlashPlates™ from PerkinElmer (Boston, Mass., USA) in a 50 μl reaction volume. The reaction cocktail was pipetted in four steps in the following order: • 20 μl of assay buffer (standard buffer) • 5 μl of ATP solution (in H2O) • 5 μl of test compound (in 10% DMSO) • 10 μl of substrate/10 μl of enzyme solution (premixed)
The assay for FLT3 wt contains 70 mM HEPES-NaOH pH 7.5, 3 mM MgCl2, 3 mM MnCl2, 3 μM Na-orthovanadate, 1.2 mM DTT, ATP (3 μM), [γ-33P]-ATP (approx. 5×1005 cpm per well), protein kinase FLT3 wt (6.1 nM) and substrate (poly(Ala,Glu,Lys,Tyr)6:2:5:1), 0.125 μg/50 μl).
The kinases are obtained from Invitrogen Corporation.
The reaction cocktails were incubated at 30° C. for 60 minutes. The reaction was stopped with 50 μl of 2% (v/v) H3PO4, plates were aspirated and washed two times with 200 μl 0.9% (w/v) NaCl. Incorporation of 33Pi was determined with a microplate scintillation counter.

One may read the IC50 as the concentration that inhibits the measured activity by half. A higher IC50 goes with weaker potency in that assay. The term melting point denotes the temperature of the solid-liquid transition.

`O=C1NCCCNc2ccn3ncc(c3n2)-c2cccc(c2)N1` [Compound 3] came in with a melting point of more than 300 °C. The IC50 in data set [1] is less than 100 nM.

The compound `Fc1cc2cc(c1)-c1cnn3ccc(nc13)NCCOCCCO2` [Compound 35] showed a melting point of 234.9 °C.

Turning to `O=C(NCCCN1CCCC1)N1CCNCCOc2cccc(c2)-c2cnn3ccc1nc23` [Compound 10], the IC50 in data set [1] was less than 100 nM.

In the case of `O=C1NCCNCCN(CCO)c2ccn3ncc(c3n2)-c2cccc1c2` [Compound 14], in data set [1], the IC50 is more than 1000 nM.

As for `COc1ccc2cc1OCCNCCNc1ccn3ncc-2c3n1` [Compound 32], in data set [2], the half-inhibitory concentration (IC50) fell in the range of 100 to 1000 nM.

On to `OCc1ccc2cc1OCCOCCNc1ccn3ncc-2c3n1` [Compound 12], for which the melting point was more than 300 °C. Besides, the 50% inhibitory concentration (IC50) in data set [1] was less than 100 nM.

Regarding `O=C(NCCF)c1ccc2cc1OCCOCCNc1ccn3ncc-2c3n1` [Compound 20], the melting point was more than 300 °C.

Consider `CN1CCNC(=O)c2cccc(c2)-c2cnn3ccc(nc23)NCC1` [Compound 9], for which the melting point was found to be 287.6 °C. Also, the IC50 in data set [1] was in the range of 100 to 1000 nM.

For the compound `CN(C)CCNC(=O)N1CCNCCOc2cccc(c2)-c2cnn3ccc1nc23` [Compound 11], the melting point was more than 300 °C. The same compound registered an IC50 in data set [1] of 100 to 1000 nM.

`c1cc2cc(c1)-c1cnn3ccc(nc13)NCCN(CCN1CCOCC1)CCO2` [Compound 5] had a melting point of more than 300 °C. Besides, in data set [1], the half-inhibitory concentration (IC50) was less than 100 nM.

`O=C1c2cccc(c2)-c2cnn3ccc(nc23)NCCNCCN1CCO` [Compound 7] came in with a melting point of 271.6 °C. In data set [1], this compound registered an IC50 of 100 to 1000 nM.

`c1cc2cc(c1)-c1cnn3ccc(nc13)OCCN(CCCN1CCCC1)CCO2` [Compound 13]: the melting point is more than 300 °C. Also, the concentration for half-maximal inhibition (IC50) in data set [1] is more than 1000 nM.

`CC(C)N1CCNc2ccn3ncc(c3n2)-c2cccc(c2)OCC1` [Compound 6] yielded a melting point of more than 300 °C. The compound also had an IC50 in data set [1] of less than 100 nM.

Compound `O=C1NCCN(CCO)CCNc2ccn3ncc(c3n2)-c2cccc1c2` [Compound 8] showed a melting point of 283.9 °C. The IC50 in data set [1] is less than 100 nM.

`O=C1NCCN(C2CC2)CCN(CCO)c2ccn3ncc(c3n2)-c2cccc1c2` [Compound 15] gave an IC50 in data set [1] of 100 to 1000 nM.

In the case of `O=C(O)c1ccc2cc1OCCOCCNc1ccn3ncc-2c3n1` [Compound 1], the melting point is more than 300 °C. For the same compound, the IC50 in data set [1] is less than 100 nM.

`O=C1CNCCNc2ccn3ncc(c3n2)-c2cccc(c2)CN1` [Compound 34]: the half-inhibitory concentration (IC50) in data set [2] is more than 1000 nM.

Turning to `CN1CCC(C(=O)N2CCOCCNc3ccn4ncc(c4n3)-c3cccc2c3)CC1` [Compound 2], the melting point was more than 300 °C. The IC50 in data set [1] is more than 1000 nM.

Consider `NC(=O)c1ccc2cc1OCCNCCNc1ccn3ncc-2c3n1` [Compound 4], for which the melting point is more than 300 °C. This compound came in with an IC50 in data set [1] of less than 100 nM.

Compound `c1cc2cc(c1)-c1cnn3ccc(nc13)NCCCNCCO2` [Compound 33] registered an IC50 in data set [2] of 100 to 1000 nM.

In the case of `O=C1CNCCNc2ccn3ncc(c3n2)-c2cccc(c2)N1` [Compound 31], the IC50 in data set [2] was more than 1000 nM.

Values taken from patent US9370519B2, “Macrocyclic FLT3 kinase inhibitors” (Oncodesign S.A., priority 2011, dated 2016).
